The values that follow come from US8404680B2, “N-[3-(5-amino-3,3a,7,7a-tetrahydro-1H-2,4-dioxa-6-aza-inden-7-yl)-phenyl]-amides as BACE1 and/or BACE2 inhibitors” (Hoffmann-La Roche Inc., priority 2011, dated 2013).

Experiment [1] concerns the target T1, BACE2 (Rattus norvegicus, UniProt Q6IE75).
T1 construct: endogenous cellular BACE2 in the Ins1e rat cell line; endogenous in cells; host or cells: INS-TMEM27 (INS1e-derived rat cell line, TetOn-inducible full-length hTMEM27)
T1 sequence (Q6IE75 63-514): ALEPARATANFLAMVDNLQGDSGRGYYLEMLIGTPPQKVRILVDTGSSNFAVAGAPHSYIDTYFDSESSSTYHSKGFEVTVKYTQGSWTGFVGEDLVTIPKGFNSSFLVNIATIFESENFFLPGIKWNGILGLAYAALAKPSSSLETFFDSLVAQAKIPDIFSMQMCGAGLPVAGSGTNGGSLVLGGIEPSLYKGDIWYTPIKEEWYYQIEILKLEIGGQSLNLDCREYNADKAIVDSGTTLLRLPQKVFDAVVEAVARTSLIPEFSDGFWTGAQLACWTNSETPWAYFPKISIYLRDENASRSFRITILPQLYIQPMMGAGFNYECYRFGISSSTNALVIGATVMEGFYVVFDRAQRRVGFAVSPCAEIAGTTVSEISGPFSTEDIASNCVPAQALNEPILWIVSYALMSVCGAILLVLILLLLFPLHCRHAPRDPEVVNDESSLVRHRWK
The experiment is described as follows: Assay for BACE inhibition by measuring cellular TMEM27 cleavage. The format is cell-based. To be noted: INS-TMEM27 (INS1e-derived rat cell line, inducible hTMEM27); shed TMEM27 in medium by ELISA. The text has this:
Assay for BACE Inhibition by Measuring Cellular TMEM27 Cleavage:
The assay uses the principle of inhibition of human TMEM27 cleavage by endogenous cellular BACE2 in the Ins1e rat cell line and shedding from the cell surface into the culture medium, followed by detection in an ELISA assay Inhibition of BACE2 prevents the cleavage and shedding in a dose-dependent manner.
The stable cell line “INS-TMEM27” represents an INS1e-derived cell line with inducible expression (using the TetOn system) of full-length hTMEM27 in a doxycycline-dependent manner. The cells are cultured throughout the experiment in RPMI1640+ Glutamax (Invitrogen) Penicillin/Streptomycin, 10% Fetal bovine serum, […], […], 100 micrograms/ml G418 and 100 microgram/ml hygromycin and are grown inadherent culture at 37° C. in a standard CO2 cell culture incubator.
INS-TMEM27 cells are seeded in 96-well plates. After 2 days in culture, BACE2 inhibitor is added in a range of concentrations as required by the assay and after a further two hours, doxycycline is added to a final concentration of 500 ng/ml. The cells are incubated for a further 46 hours and the supernatant harvested for detection of shed TMEM27.
An ELISA assay (using a pair of mouse anti-human-TMEM27 antibodies, raised against the extracellular domain of TMEM27) is used for detection of TMEM27 in the culture medium. An EC50 for BACE2 inhibition is calculated using the ELISA readout for each inhibitor concentration with standard curve-fitting software such as XLFit for the Excel spreadsheet program.
(In general: In an ELISA, binding on a coated surface is turned into a signal by an enzyme label.)

Experiment [2] addresses T2, BACE1 (Homo sapiens, UniProt P56817).
T2 construct: Human HEK293 cells which are stably transfected with a vector expressing a cDNA of the human APP wt gene (APP695); endogenous in cells; host or cells: HEK293 (human), stably transfected with human APP695 wt
The experiment is described as follows: Cellular Aβ-lowering assay. The format is cell-based. Particulars: human HEK293 cells stably expressing human APP wt (APP695); Aβ40 in supernatant by ELISA after 18-20 hrs. The method, then: Cellular Aβ-Lowering Assay:
Human HEK293 cells which are stably transfected with a vector expressing a cDNA of the human APP wt gene (APP695) were used to assess the potency of the compounds in a cellular assay. The cells were seeded in 96-well microtiter plates in cell culture medium (Iscove, plus 10% (v/v) fetal bovine serum, glutamine, penicillin/streptomycin) to about 80% confluence and the compounds were added at a 10× concentration in 1/10 volume of medium without FCS containing 8% DMSO (final concentration of DMSO was kept at 0.8% v/v). After 18-20 hrs incubation at 37° C. and 5% CO2 in a humidified incubator the culture supernatant was harvested for the determination of Aβ40 concentrations. 96well ELISA plates (e.g., Nunc MaxiSorb) were coated with monoclonal antibody which specifically recognize the C-terminal end of Aβ40 (Brockhaus et al., NeuroReport 9, 1481-1486; 1998). After blocking of non-specific binding sites with e.g. 1% BSA and washing, the culture supernatants were added in suitable dilutions together with a horseradish peroxidase-coupled Aβ detection antibody (e.g., antibody 4G8, Senetek, Md. Heights, Mo.) and incubated for 5 to 7 hrs. Subsequently the wells of the microtiter plate were washed extensively with Tris-buffered saline containing 0.05% Tween 20 and the assay was developed with tetramethylbenzidine/H2O2 in citric acid buffer. After stopping the reaction with one volume 1 NH2SO4 the reaction was measured in an ELISA reader at 450 nm wavelength. The concentrations of Aβ in the culture supernatants were calculated from a standard curve obtained with known amounts of pure Aβ peptide.

Usually IC50 stands for the concentration needed to halve the response being measured.

T2 sequence (P56817 46-501): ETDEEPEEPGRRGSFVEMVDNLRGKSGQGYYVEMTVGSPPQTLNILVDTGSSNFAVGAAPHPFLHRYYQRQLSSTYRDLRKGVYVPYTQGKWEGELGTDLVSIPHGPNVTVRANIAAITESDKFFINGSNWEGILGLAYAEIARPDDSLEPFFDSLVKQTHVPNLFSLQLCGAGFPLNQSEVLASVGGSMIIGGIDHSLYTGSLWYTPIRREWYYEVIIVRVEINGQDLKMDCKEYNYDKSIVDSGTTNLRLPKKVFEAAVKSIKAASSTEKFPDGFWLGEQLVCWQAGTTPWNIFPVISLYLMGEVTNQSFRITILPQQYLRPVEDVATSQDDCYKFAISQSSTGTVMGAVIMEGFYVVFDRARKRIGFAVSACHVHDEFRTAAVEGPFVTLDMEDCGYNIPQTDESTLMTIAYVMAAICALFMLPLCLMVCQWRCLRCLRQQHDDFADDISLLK

Consider `C[C@]1(c2cc(NC(=O)c3ccccn3)ccc2F)N=C(N)O[C@@H]2COC[C@@H]21` [Example 5, Pyridine-2-carboxylic acid [3-((3aS,7S,7aS)-5-amino-7-methyl-3,3a,7,7a-tetrahydro-4H-2,4-dioxa-6-aza-inden-7-yl)-4-fluoro-phenyl]-amide], for which the values for the half-maximal inhibitory concentration (IC50) in experiment [1] and in experiment [2] were 37 nM and 8 nM, respectively.

Consider `C[C@]1(c2cc(NC(=O)c3ccc(OCC(F)(F)F)cn3)ccc2F)N=C(N)O[C@@H]2COC[C@@H]21` [Example 6, 5-(2,2,2-Trifluoro-ethoxy)-pyridine-2-carboxylic acid [3-((3aS,7S,7aS)-5-amino-7-methyl-3,3a,7,7a-tetrahydro-4H-2,4-dioxa-6-aza-inden-7-yl)-4-fluoro-phenyl]-amide], for which the 50% inhibitory concentration (IC50) in experiment [1] is 556 nM; in experiment [2] it was 6 nM.

Consider `C[C@]1(c2cc(NC(=O)c3cnc(OCC(F)(F)F)cn3)ccc2F)N=C(N)O[C@@H]2COC[C@@H]21` [Example 8, 5-(2,2,2-Trifluoro-ethoxy)-pyrazine-2-carboxylic acid [3-((3aS,7S,7aS)-5-amino-7-methyl-3,3a,7,7a-tetrahydro-1H-2,4-dioxa-6-aza-inden-7-yl)-4-fluoro-phenyl]-amide], for which the IC50 was found to be 209 nM in experiment [1] and 1.8 nM in experiment [2].
